Assays:
[1] = system: leukotriene D4 induced bronchoconstriction; assay: Oral Testing of Leukotriene Antagonists, leukotriene D4 challenge; assay type: in vivo, guinea pig (Hartley strain); conditions: Cavia porcellus, 2 h, p.o., two hours prior to challenge
Protocol: (c) Oral Testing of Leukotriene Antagonists
Male guinea pigs (Hartley strain, Charles River) weighing 400 to 600 g were anesthetized with urethane (2 g/kg) intraperitoneally and a polyethylene cannula was inserted into the jugular vein for intravenous drug administration. Tracheal pressure (cm water) was recorded from a Statham pressure transducer. After surgical preparation of the animals, a period of time was allowed for spontaneous breathing to stabilize. […] Two minutes later, spontaneous breathing was arrested with succinylcholine chloride (1.2 mg/kg, i.v.) and the animals ventilated with a Harvard (Model #680) small animal respirator set at 40 breaths per minute and 4.0 cc stroke volume. The animals were challenged with a maximum constrictory dose of either leukotriene C4 or leukotriene D4 or leukotriene E4 (25 μg/kg, i.v.) at 5 minutes. Control vehicle or test drug (adjusted to an alkaline pH where necessary for drug solubilization) was administered (10 mg/kg, p.o.) two hours prior to challenge with leukotriene. In order to determine the ID50 for a test drug, the dose is varied from 10 mg/kg, p.o. to 100, 50, 30, 20, 5, 3 and 1 mg/kg, p.o.
In order to determine oral duration of action, the time between exposure to test drug and challenge with leukotriene is varied.

[2] = system: SRS-A-induced constriction of the guinea pig ileum; assay: Guinea Pig Ileum, In Vitro (SRS-A antagonism); assay type: cell-based; conditions: Cavia porcellus; SRS-A-induced constriction, 37° C., SRS-A at its EC50; read-out: In vitro Guinea Pig ileum IC50
Protocol: (a) Guinea Pig Ileum, In Vitro:
The guinea pig ileum bioassay system has been described by Orange Austen, Adv. Immunol. […] A 1.5 cm segment is removed from animals weighing 300-400 g and suspended in an organ bath containing 10 ml of Tyrodes solution with 10^-6 M atropine sulfate and 10^-6 M pyrilamine maleate. […] The SRS-A utilized in this screen is obtained by challenging chopped lung fragments from actively sensitized guinea pigs with egg albumin, in vitro. A dose-response curve to SRS-A challenge is established for the ileum. […] The drug concentration which inhibits, by 50%, the SRS-A-induced constriction of the guinea pig ileum is determined.

[3] = system: leukotriene E4 bronchoconstriction; assay: Guinea Pig Bronchoconstriction, In Vivo (Aerosol), leukotriene E4 challenge; design: species or system guinea pig (Hartley strain); conditions: five minute exposure, drug concentration of aerosol solution (w/v), leukotriene E4 i.v.
Protocol: (b) Guinea Pig Bronchoconstriction, In Vivo (Aerosol):
Male guinea pigs (Hartley strain) weighing 300 to 500 g are anesthetized with urethane (2 g/kg) intraperitoneally and a polyethylene cannula is inserted into the jugular vein for drug administration. Tracheal pressure is recorded from a cannula inserted in the trachea and connected to a Statham pressure transducer. After surgical preparation of the animals, a period of time is allowed for pulmonary functions to stabilize. The test compound is administered according to the following protocol. Propanolol (0.1 mg/kg) is administered intravenously while the animals breathed spontaneously. Five minutes thereater, the animals are exposed for a five minute period to a 1% (w/v) aerosol solution of test compound (adjusted to an alkaline pH where necessary for drug solubilization) or to distilled water of thhe appropriate pH (for control purposes). A Monaghan (Model 750) ultrasonic nebulizer is used to administer all test compounds by inhalation. The nebulizer ultrasonic frequency is adjusted to produce particles in the 1-8μ diameter range (average 3μ). Aqueous solutions are prepared freshly and introduced into the chamber of the nebulizer. The output of the nebulizer is made available to the animal by directing a bias flow of aerosol through a Y tube connected to the trachel cannula. At the end of the exposure period, the animals are paralyzed with succinylcholine (1.2 mg/kg, i.v.) and mechanically respirated (Harvard rodent respirator) at 40 breaths/minute and 2.5 cc tidal volume. Animals are then challenged with a maximum constrictory dose of leukotriene E4 delivered intravenously 30 seconds after administration of the succinylcholine.
The change (cm H2 O) between pre and peak ventilatory pressure readings averaged for three control animals and five drug treated animals. The percent inhibition is calculated from the following formula: [formula] When various drug concentrations are tested, the percent inhibition at each concentration is plotted as log concentration (abscissa) versus percent inhibition (ordinate) and the IC50 is determined from linear regression analysis.

Row | Structure (SMILES) | inhibition at 10 mg/kg [1] | IC50 [2] | Guinea Pig Bronchoconstriction In vivo aerosol - IC50 [3]
1 | CCCc1c(OCCCCCOc2cc3c(cc2C(C)=O)CCC(CCCCC(=O)O)O3)ccc(C(C)=O)c1O (racemic) [racemic-6-acetyl-7-[5-(4-acetyl-3-hydroxy-2-propylphenoxy)pentyloxy]-3,4-dihydro-2H-1-benzopyran-2-pentanoic acid] | 46 ± 14% |  | 
2 | CCCc1c(OCCCOc2ccc3c(c2)OCC(C(=O)O)C3)ccc(C(C)=O)c1O (racemic) [racemic 7-[3-(4-acetyl-3-hydroxy-2-propylphenoxy)propoxy]-3,4-dihydro-2H-1-benzopyran-3-carboxylic acid] |  | 100 nM | > 1.0%
3 | CCCc1c(OCCCOc2c(C)c(C)c3c(c2C)CCC(C)(CC(=O)O)O3)ccc(C(C)=O)c1O (racemic) [racemic-6-[3-(4-acetyl-3-hydroxy-2-propylphenoxy)propoxy]-3,4-dihydro-2,5,7,8-tetramethyl-2H-1-benzopyran-2-acetic acid] |  | 200 nM | 1.0%
4 | CCCc1c(OCCCOc2c(C(C)=O)cc3c(c2CCC)OC(C(=O)O)CC3)ccc(C(C)=O)c1O (racemic) [racemic-6-acetyl-7-[3-(4-acetyl-3-hydroxy-2-propylphenoxy)propoxy]-3,4-dihydro-8-propyl-2H-1-benzopyran-2-carboxylic acid] |  | 100 nM | 0.38%
5 | CCCc1c(OCCCOc2ccc3c(c2)OC(CC(=O)O)CC3)ccc(C(C)=O)c1O (racemic) [racemic-7-[3-(4-acetyl-3-hydroxy-2-propylphenoxy)propoxy]-3,4-dihydro-2H-1-benzopyran-2-acetic acid] |  | 100 nM | 0.67%
6 | CCCc1c(OCCCOc2ccc3c(c2C(C)=O)OC(C(=O)O)CC3)ccc(C(C)=O)c1O (racemic) [racemic-8-acetyl-7-[3-(4-acetyl-3-hydroxy-2-propylphenoxy)propoxy]-3,4-dihydro-2H-1-benzopyran-2-carboxylic acid] |  | 300 nM | 0.59%
7 | CCCc1c(OCCCOc2ccc3c(c2)OC(C(=O)O)CC3)ccc(C(C)=O)c1O (racemic) [racemic-7-[3-(4-acetyl-3-hydroxy-2-propylphenoxy)propoxy]-3,4-dihydro-2H-1-benzopyran-2-carboxylic acid] |  | 60 nM | 0.14%
8 | CCCc1c(OCCCOc2ccc3c(c2)CCC(C)(C(=O)O)O3)ccc(C(C)=O)c1O (racemic) [racemic-6-[3-(4-acetyl-3-hydroxy-2-propylphenoxy)propoxy]-3,4-dihydro-2-methyl-2H-1-benzopyran-2-carboxylic acid] |  | 100 nM | 0.20%
9 | CCCc1c(OCCCOc2cc3c(cc2C(C)=O)OC(C(=O)O)CC3)ccc(C(C)=O)c1O (racemic) [racemic-7-acetyl-6-[3-(4-acetyl-3-hydroxy-2-propylphenoxy)propoxy]-3,4-dihydro-2H-1-benzopyran-2-carboxylic acid] |  | 200 nM | 0.34%
10 | CCCc1c(OCCCCCOc2cc3c(cc2C(C)=O)CCC(C(=O)O)O3)ccc(C(C)=O)c1O (racemic) [racemic-6-acetyl-7-[5-(4-acetyl-3-hydroxy-2-propylphenoxy)pentyloxy]-3,4-dihydro-2H-1-benzopyran-2-carboxylic acid] |  | 60 nM | 0.052%
11 | CCCc1c(OCCCOc2ccc3c(c2)CCC(C(=O)O)O3)ccc(C(C)=O)c1O (racemic) [racemic-6-[3-(4-acetyl-3-hydroxy-2-propylphenoxy)propoxyl]3,4-dihydro-2H-1-benzopyran-2-carboxylic acid] |  | 500 nM | 0.50%

Source: patent publication US4788214A, “3,4-dihydro-2H-1-benzopyran derivatives” (Hoffman-La Roche Inc., priority 1986, dated 1988)
